Measured values as given in patent US11536729B2, “Method of identifying novel protein aggregation inhibitors based on chemical kinetics” (Cambridge Enterprise Limited, priority 2016, dated 2022).

How the values were obtained:
Format in all cases: biochemical
Aβ42 [1] = target: T1, Aβ42 (Homo sapiens, UniProt P05067); assay: ThT-based Aβ42 aggregation kinetics under quiescent (unseeded) conditions; conditions: for ranking of efficacy within set: 2 μM Aβ42; for change of inhibitory activity relative to parent scaffold: structural comparison among RAR/RXR modulators
T1 construct: The recombinant Aβ (M1-42) peptide; made in house; host or cells: E. coli BL21 Gold (DE3)
Experimental: Solutions of monomeric peptides were prepared by dissolving the lyophilized Aβ42 peptide in 6 M GuHCl. Monomeric forms were purified from potential oligomeric species and salt using a Superdex 75 10/300 GL column (GE Healthcare) at a flowrate of 0.5 mL/min, and were eluted in 20 mM sodium phosphate buffer, pH 8 supplemented with 200 μM EDTA and 0.02% NaN3. The center of the peak was collected and the peptide concentration was determined from the absorbance of the integrated peak area using ε280=1400 l mol^−1 cm^−1. The obtained monomer was diluted with buffer to the desired concentration and supplemented with 20 μM Thioflavin T (ThT) from a 1 mM stock. All samples were prepared in low binding eppendorf tubes on ice using careful pipetting to avoid introduction of air bubbles. Each sample was then pipetted into multiple wells of a 96-well half-area, low-binding, clear bottom and PEG coating plate (Corning 3881), 80 μL per well.
We verified that the addition of 1% DMSO in the reaction mixture has no effect on Aβ42 aggregation.
(§1) Assays were initiated by placing the 96-well plate at 37° C. under quiescent conditions in a plate reader (Fluostar Omega, Fluostar Optima or Fluostar Galaxy, BMGLabtech, Offenburg, Germany). The ThT fluorescence was measured through the bottom of the plate with a 440 nm excitation filter and a 480 nm emission filter. The ThT fluorescence was followed for three repeats of each sample.
The time evolution of the total fibril mass concentration, M(t), is described by the following integrated rate law (30, 32)
(§2) [formula] where the kinetic parameters B±, C±, κ, κ∞ and ? are functions of the two ? combinations of the microscopic rate constants k+k2 and knk2, where kn, k+ and k2 are the primary nucleation, elongation and secondary nucleation rate constants, respectively.
The time evolution of the total fibril mass concentration, M(t), is described by the following integrated rate law
as §2, with “two” for “two ?”, “respectively. Aβ42 alone in 1% DMSO was first modeled to obtain the k+k2 and knk2 combined microscopic rate constants.” for “respectively.”
Target sequence in this assay (P05067 671-713): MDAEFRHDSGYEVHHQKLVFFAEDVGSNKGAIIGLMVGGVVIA
With the introduction of different small molecules, the aggregation process can be inhibited by one or more individual microscopic reactions. Microscopic rate constants k+k2 and knk2 were obtained in the presence of the molecules, and compared to the initial values of Aβ42 alone. This comparison allows one to understand which rate was mainly perturbed, as well as the potency of the compounds (by relative changes of their microscopic rates) with respect to each other.

Aβ42 [2] = target: T1, Aβ42; assay: ThT Aβ42 aggregation kinetics with 1-5% pre-formed fibril seeds (surface-catalyzed secondary nucleation); conditions: 2 μM Aβ42, 1-5% seeds, 0.5-fold excess
Experimental: For the seeded experiments, preformed fibrils were prepared just prior to the experiment. Kinetic experiments were set up just as above for a […] Aβ42 samples in 20 mM sodium phosphate buffer, pH 8 with 200 μM EDTA, 0.02% NaN3 and 20 μM ThT. The ThT fluorescence was monitored for 3 hours to verify the formation of fibrils.
(§3) Samples were then collected from the wells into low-binding tubes and sonicated for 2 min in a sonicator bath at room temperature. Under the considered conditions (i.e. 4 μM Aβ42), the monomer concentration is negligible at equilibrium (31). The final concentration of fibrils, in monomer equivalents, was considered equal to the initial concentration of monomer. Fibrils were then added to freshly prepared monomer in order to reach either 5% or 10% fibrils final concentration.
as §1, with “sample. […]” for “sample.”
Target sequence in this assay (P05067 672-713 limits assumed): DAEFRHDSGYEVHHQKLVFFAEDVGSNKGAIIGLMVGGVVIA
For the seeded experiments, preformed fibrils were prepared just prior to the experiment. […] The ThT fluorescence was monitored for 3 hours to verify the formation of fibrils. […]

Aβ42 [3] = target: T1, Aβ42; assay: ThT Aβ42 aggregation kinetics with 10% pre-formed fibril seeds (elongation dominant); conditions: 2 μM Aβ42, 5-fold excess
Experimental: as §3
as §1, with “sample. […]” for “sample.”
Target sequence in this assay (P05067 672-713 limits assumed): as above

| Compound | ranking of efficacy within set (Aβ42 [1]) | change of inhibitory activity relative to parent scaffold (Aβ42 [1]) | effect on Aβ42 aggregation of linker variants of bexarotene (Aβ42 [1]) | further results |
| --- | --- | --- | --- | --- |
| COc1ccc(-c2ccc3cc(C(=O)O)ccc3c2)cc1C12CC3CC(CC(C3)C1)C2 [Adapalene] | most effective molecules within Set C | – | – | – |
| CC1(C)CC=C(C#Cc2ccccc2)c2cc(/C=C/c3ccc(C(=O)O)cc3)ccc21 [BMS493] | – | same effect | – | – |
| CC1(C)C(=O)C(C)(C)c2cc(C(=O)Nc3ccc(C(=O)O)cc3)ccc21 [BMS753] | – | – | – | delay / effect on Aβ42 aggregation (Aβ42 [1]; 2 μM Aβ42, 3-fold excess): did not show any effect; effect on aggregation kinetics of Aβ42 (Aβ42 [1]; fold-excesses as high as 5): did not show any effect |
| CC1(C)CC=C(c2cnc3ccccc3c2)c2cc(C(=O)Nc3ccc(C(=O)O)cc3)ccc21 [BMS195614] | – | substantial increase in primary nucleation inhibitory activity | – | – |
| CC1(C)CCC(C)(C)c2cc(C3(c4ccc5cc(C(=O)O)ccc5c4)SCCS3)ccc21 [MM11253] | most effective molecules within Set C | – | – | – |
| CC1(C)CCC(C)(C)c2cc(C3(c4ccc(C(=O)O)cc4)OCCO3)ccc21 [SR11237] | – | – | delayed the aggregation of Aβ42 to different extent | – |
| C/C(=C\c1ccc(C(=O)O)cc1)c1ccc2c(c1)C(C)(C)CCC2(C)C [TTNPB] | – | increase in inhibitory activity | delayed the aggregation of Aβ42 to different extent | – |
| CC1(C)CCC(C)(C)c2cc(NC(=O)c3ccc(C(=O)O)cc3)ccc21 [Tamibarotene] | – | – | delayed the aggregation of Aβ42 to different extent | – |
| CCCCCOc1cc2c(cc1-c1cc(/C=C/C(=O)O)ccc1O)C(C)(C)CCC2(C)C [UVI3003] | most effective molecule within Set B | – | – | decrease of rate of surface-catalyzed secondary nucleation (k2) (Aβ42 [2]): 75%; effect on aggregation kinetics / elongation with 10% fibril seeds (Aβ42 [3]): no effect could be observed |
| NCCCS(=O)(=O)O [tramiprosate] | – | – | – | effect on Aβ42 aggregation (Aβ42 [1]; even when present in 20-fold excess): no effects |
